The record followed here is patent publication US12071477B2, “Anti-folate receptor alpha antibody conjugated with hemiasterlins” (SUTRO BIOPHARMA, INC., priority 2017, dated 2024).

The subject of series [1] is cell lines tested (Igrov1, A549 and others). Put plainly: In vitro cytotoxic activity of free drugs, various cell lines. It is filed as cell-based. The note with it: in vitro cytotoxicity studies.
A short description of series [2]: Pharmacokinetic profile of free drugs in Sprague-Dawley rats. It is filed as in vivo, rat. Here is the method: To assess the pharmacokinetic profile of free drug (I), female Sprague-Dawley rats (mean body weight 250 g) were given either a 0.4 mg/kg or 1 mg/kg dose by IV bolus administration (N═three animal per dose level) via an indwelling jugular vein catheter. Blood samples were collected at […], 1, 2, 8, 24, 32, 48, and 72 hour post-dose. Levels of free drug (I) and (II) were measured by LC-MS/MS and non-compartmental pharmacokinetic analysis was conducted using Phoenix WinNonlin Version 6.4 (Pharsight Corporation). The PK of free drug (I) could not be estimated due to the fact that concentrations of (I) increased from 2 to 8 hours and were undetectable thereafter.

Series [3] is described as follows: Body weight change in rats given free drugs. In kind it is in vivo, rat. Particulars: free drug (I): two doses (0.4, 1 mg/kg); free drug (II): 0.4 mg/kg.
Series [4] concerns MES-SA/MX2 cells (P-glycoprotein). The series can be described thus: Free drug cell killing on PgP overexpressing MES-SA/MX2 cells with or without PgP inhibitor GF120918. It is filed as cell-based. An excerpt: (§1) To evaluate if free drug (I) is specifically a substrate of P-glycoprotein (PgP), which is responsible for cisplatin-resistance in some of the ovarian cancer cell lines (Stordal et al. 2012. PLoS One 7(7)), the free drug cell killing activities were investigated on PgP overexpressing MES-SA/MX2 cell line and the parental MES-SA cells. The cell killing activity of free drug (I), free drug (II) and a control free drug (MMAE, designated “III”) on the PgP-overexpressing MES-SA/MX2 cells were reduced by different levels compared to their activity on parental MES-SA cells. The MES-SA/MX2 cells were also treated with PgP inhibitor GF120918 (5 μM) to further investigate if the observed cell killing reduction is contributed by the presence of PgP on the cell surface.

The subject of a further series is MES-SA cells. The series can be described thus: Free drug cell killing on parental MES-SA cells. In kind it is cell-based. The note with it: Homo sapiens, MEA-SA, No GF120918.
Description: as §1

The next series has as its system MC38-hFolRα tumors. The series can be described thus: MC38-hFolRα tumor model, combination with Avelumab. In kind it is in vivo. The note with it: ADC Molecule 4 10 or 15 mg/kg once IV; Avelumab q3dx3. An excerpt:
Results are illustrated in FIGS. 24 and 25.

Series [5] deals with FOLR1-positive Igrov1 cells. Put plainly: Secondary antibody cell killing assay (anti-human Fc nanobody-hemiasterlin) on Igrov1 cells. It is filed as cell-based. Particulars: humanized 6D1 (2060) antibodies.
Description: The internalization of the antibodies was evaluated by a secondary antibody cell killing assay on target positive cells. FOLR1-positive KB cells were obtained from ATCC, and FOLR1-positive Igrov1 cells were obtained from NIH. The cells were maintained in Ham's F-12: high glucose DMEM (50:50) (Corning, Cellgro-Mediatech) supplemented with 10% heat-inactivated fetal bovine serum (Corning, Cellgro-Mediatech, Manassas, Virginia), 1% Penicillin/Streptomycin (Corning, Cellgro-Mediatech, Manassas, Virginia) and 2 mmol/L-glutamax (Thermo Fisher Scientific, Waltham, Massachusetts). Adherent cells were washed twice with calcium and magnesium-free Hanks Balanced Salt Solution (HBSS), harvested with HYQ® TASE™ (Hyclone; Thermo Fisher Scientific, Waltham, Massachusetts) and counted by the Vi-CELL Cell Viability Analyzers (Beckman Coulter, Indianapolis, Indiana). A total of 625 cells were seeded in each well of a 384-well flat bottom white polystyrene plate. Lead antibodies were formulated at 4-fold starting concentration in the cell culture medium and filtered through Multi ScreenHTS 96-Well Filter Plates (Millipore; Billerica, Massachusetts). […] Assay plates were cultured at 37° C. in a CO2 incubator for 120 hrs before assay. For cell viability measurement, 30 μL of Cell Titer-Glog reagent (Promega Corp. Madison, WI) was added into each well, and plates were processed as per product instructions. Relative luminescence was measured on an ENVISION® plate reader (Perkin-Elmer; Waltham, MA). Relative luminescence readings were converted to percent viability using untreated cells as controls. Data was fitted with nonlinear regression analysis, using a log(inhibitor) vs. response-variable slope, 4 parameter fit with GraphPad Prism (GraphPad v 5.0, Software; San Diego, California). Data was expressed as relative cell viability (ATP content) % vs. dose of antibody.
A further series addresses T1, human FOLR1-H1S (Homo sapiens, UniProt P15328).
T1 construct: His (printed 'H1S', read as a misprint of HIS)
Put plainly: Biacore affinity and kinetic binding analysis. The note with it: humanized 6D1 (2060) antibodies. The method, then:
Anti-Fc polyclonal antibodies were immobilized onto a CM5 chip (GE Life Sciences) using amine coupling chemistry (from Amine Coupling Kit, GE Life Sciences). The immobilization steps were carried out at a flow rate of 25 μL/min in 1×HBS-EP+buffer (GE Life Sciences; 10× Stock diluted before use). The sensor surfaces were activated for 7 min with a mixture of N-hydroxysuccinimide (NHS, 0.05 M) and 1-ethyl-3-(3-dimethylaminopropyl)-carbodiimide (EDC, 0.2 M). The anti-Fc polyclonal antibodies were injected over all 4 flow cells at a concentration of 25 μg/mL in 10 mM sodium acetate, pH 4.5, for 7 min. Ethanolamine (1 M, pH 8.5) was injected for 7 min to block any remaining activated groups. An average of 12,000 response units (RU) of capture antibody was immobilized on each flow cell.
Off-rate and kinetic binding experiments were performed at 25° C. using 1×HBS-EP+ buffer. Test and control antibodies were injected over the anti-Fc surface at concentrations of 5-10 μg/mL for 12 seconds at a flow rate of 10 μL/min on flow cells 2, 3 and 4, followed by a buffer wash for 30 seconds at the same flow rate. Kinetic characterization of antibody samples was carried out with a single concentration of antigen (for off-rate ranking) or a 1:2 dilution series of antigen (for kinetic characterization) and 1 injection of 0 nM antigen. […] Between each ligand capture and analyte binding cycle, regeneration was carried out using 2 injections of 10 mM glycine pH 2.0 for 30 seconds at 30 μL/min, followed by a 30 second buffer wash step.
The data were fit with the Biacore T200 Evaluation software, using a 1:1 Langmuir binding model. KD (affinity, nM) was determined as a ratio of the kinetic rate constants calculated from the fits of the association and dissociation phases.
On the technique in general: Surface plasmon resonance follows binding to a sensor surface in real time, without labels.

Where [6] appears, read: MEA-SA/MX2, GF120918 (5 μM PgP inhibitor).

Positions count from the first letter of the chain named. Square brackets hold non-standard residues; d marks the D form. Peptide text beside a SMILES is read from it. * marks the point of attachment. Dolaproine = CO[C@@H]([C@@H]1CCCN1)[C@@H](C)C(=O)O; Dil = CC[C@H](C)[C@H](NC)[C@@H](CC(=O)O)OC; X1 = C[C@@H](N*)[C@@H](O)c1ccccc1; NMeV = CN[C@H](C(=O)O)C(C)C

T1 sequence (P15328 25-234 limits assumed): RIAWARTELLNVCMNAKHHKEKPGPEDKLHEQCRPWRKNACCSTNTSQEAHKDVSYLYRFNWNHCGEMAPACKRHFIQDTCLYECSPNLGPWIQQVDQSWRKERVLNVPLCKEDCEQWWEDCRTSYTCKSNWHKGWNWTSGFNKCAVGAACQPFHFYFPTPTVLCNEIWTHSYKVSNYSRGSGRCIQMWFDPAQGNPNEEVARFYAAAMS

Consider `CN[C@H](C(=O)N[C@H](C(=O)N(C)[C@H](/C=C(\C)C(=O)O)C(C)C)C(C)(C)C)C(C)(C)c1cccc(N)c1` [free drug (I)], for which the “cytotoxic activity of released free drugs, comparison” value in series [1] was “comparable cytotoxic activity”. For the same molecule, the “plasma level post dose” value in series [2] (0.4 or 1 mg/kg IV bolus) is given as “undetectable at 24 hours post dose”. Besides, the “PK of free drug (I) in rat vs. free drug (II)” value in series [2] (rat) is on record as “Free drug (I) has faster clearance”. The “effect on body weight” value in series [3] is on record as “did not have an effect on the body weight”. For the same molecule, the 50% effective concentration (EC50) (as a rule, the concentration needed to bring the measured effect to its halfway point) in series [4] (setting [6]) stood at 6.4 nM; in series [4] (MEA-SA/MX2, No GF120918), 50 nM. The same molecule came in with a Span in series [4] (MEA-SA/MX2, No GF120918) of 100%.
On to `COc1cc2cc(c1Cl)N(C)C(=O)C[C@H](OC(=O)[C@H](C)N(C)C(=O)CCC(C)(C)S)[C@]1(C)O[C@H]1[C@H](C)[C@@H]1C[C@@](O)(NC(=O)O1)[C@H](OC)/C=C/C=C(/C)C2` [free drug (II)], for which, in series [1], the “cytotoxic activity of released free drugs, comparison” value was “comparable cytotoxic activity”. For the same molecule, the “effect on body weight” value in series [3] is recorded as “progressive body weight loss”. In addition, the 50% effective concentration (EC50) in series [4] (setting [6]) stood at 1.7 nM; in series [4] (MEA-SA/MX2, No GF120918), 28 nM. Besides, the Span in series [4] (MEA-SA/MX2, No GF120918) is listed as 100%.
Consider `CC[C@H](C)[C@@H]([C@@H](CC(=O)N1CCC[C@H]1[C@H](OC)[C@@H](C)C(=O)N[C@H](C)[C@@H](O)c1ccccc1)OC)N(C)C(=O)[C@@H](NC(=O)[C@@H](NC)C(C)C)C(C)C` [free drug (III), monomethyl auristatin E] (H-[NMeV]V[Dil][Dolaproine]-X1; N-terminus and C-terminus assumed), for which the EC50 in the series on MES-SA cells came to 0.75 nM; in series [4] (setting [6]), 1 nM; in series [4] (MEA-SA/MX2, No GF120918), 111 nM.
As to “Avelumab: PD-L1 inhibitor Avelumab (clinical grade) [reference compound]”, the initial tumor response result in the series with MC38-hFolRα tumors was “tumor stasis until approximately day 7”.

B1: SRP2060-A06 (antibody, V domains shown)
VH: EVQLLESGGGLVQPGGSLRLSCAFSGFSLSTFGMGVGWVRQAPGKGLEWVGHIWWDDDKYYYPALKGRFTISKDNSKNTVYLQMNSLRAEDTAVYYCGRNHFPHYYGSSHWYFDVWGQGTTVTVSS
VL: DIQMTQSPSTLSASVGDRVTITCKASQDINSYLSWYQQKPGKAPKLLIYRANRLVDGVPSRFSGSGSGTEFTLTISSLQPDDFATYYCLQYDEFPYTFGGGTKVEIK
modifications: drug conjugate; Synthetic SRP2060-A06, VH; Synthetic H6D1-LC5, VL
As to B1, the “Igrov 2° Antibody Cell Killing, Nb-SC239 span” value (“Igrov 2° Antibody Cell Killing” below) in series [5] was found to be 66%.

B2: SRP2060-E10: affinity-matured humanized 6D1 antibody, VH SEQ ID NO 363, VL H6D1-LC4 (antibody, V domains shown)
VH: B1 VH with G51S, Y62H, D114N
VL: EIVMTQSPATLSLSPGERATLSCKASQDINSYLSWYQQKPGQAPRLLIYRANRLVDGIPARFSGSGSGTDYTLTISSLEPEDFAVYYCLQYDEFPYTFGGGTKVEIK
modifications: drug conjugate; Synthetic SRP2060-E10, VH; Synthetic H6D1-LC4, VL
Consider B2, for which, in the series with human FOLR1-H1S, the Biacore kinetics ka stood at 582000 M⁻¹ s⁻¹ and the Biacore kinetics kd worked out at 0.0012 s⁻¹. Further, in series [5], the “Igrov 2° Antibody Cell Killing” value amounted to 68%.

B3: SRP2060-E05: affinity-matured humanized 6D1 antibody, VH SEQ ID NO 364, VL H6D1-LC4 (antibody, V domains shown)
VH: B1 VH with G51S, Y62H, I71V, D114N
VL: B2 VL
modifications: drug conjugate; Synthetic SRP2060-E05, VH; Synthetic H6D1-LC4, VL
On to B3, for which, in the series with human FOLR1-H1S, the Biacore kinetics ka amounted to 541000 M⁻¹ s⁻¹ and the Biacore kinetics kd stood at 0.00158 s⁻¹. In series [5], the “Igrov 2° Antibody Cell Killing” value is 71%.

B4: SRP2060-B01 (antibody, V domains shown)
VH: B1 VH with F24L, P43T, G51S, Y62H, Y81H, D114N
VL: B1 VL
modifications: drug conjugate; Synthetic SRP2060-B01, VH; Synthetic H6D1-LC5, VL
For B4, the “Igrov 2° Antibody Cell Killing” value in series [5] is reported as 76%.
